Literature values in US20030176652A1, “Human and mouse beta-defensins, antimicrobial peptides” (priority 2001, published 2003).
Values joined by “and” are separate entries in the source; they are usually repeats but may differ in a detail not shown here. Equal values may be shown once. Read-outs that look alike come from different tables or passages of the source. Where no end group is shown, it is not given here.

Legend:
[1] = tested on: Streptococcus agalactiae; parameters: MIC50 / MIC90: unit not given beside the values
[2] = tested on: Enterococcus spp.; parameters: MIC50 / MIC90: unit not given beside the values
[3] = tested on: Staphylococcus haemolyticus
[4] = tested on: Staphylococcus epidermidis; parameters: unit not given beside the values
[5] = tested on: Campylobacter pylori; parameters: MIC50: unit not given beside the values
[6] = tested on: Bordetella bronchiseptica; parameters: MIC50 / MIC90: unit not given beside the values
[7] = tested on: Branhamella (Moraxella) catarrhalis; settings: Branhamella (Moraxella) catarrhalis (β-lactamase producer)
[8] = tested on: Streptococcus pneumoniae
[9] = tested on: Haemophilus ducreyi; parameters: unit not given beside the values
[10] = tested on: Neisseria meningitidis; parameters: MIC50 / MIC90: unit not given beside the values
[11] = tested on: Enterococcus faecium
[12] = tested on: Campylobacter jejuni; parameters: MIC90: unit not given beside the values
[13] = tested on: Haemophilus parainfluenzae; parameters: MIC50 / MIC90: unit not given beside the values
[14] = tested on: Corynebacterium JK
[15] = tested on: Listeria monocytogenes; parameters: unit not given beside the values
[16] = tested on: Streptococcus spp.; parameters: unit not given beside the values
[17] = tested on: Staphylococcus aureus; parameters: MIC50 / MIC90: unit not given beside the values
[18] = tested on: Streptococcus pyogenes; parameters: unit not given beside the values
[19] = tested on: Borrelia burgdorferi
[20] = tested on: Bacillus spp.; parameters: MIC90: unit not given beside the values
[21] = tested on: Nocardia asteroides; parameters: MIC50 / MIC90: unit not given beside the values
[22] = tested on: Staphylococcus hominis; parameters: unit not given beside the values
[23] = tested on: Neisseria gonorrhoeae; parameters: MIC90: unit not given beside the values
[24] = tested on: Bacteroides fragilis; parameters: MIC50 / MIC90: unit not given beside the values
[25] = tested on: Haemophilus influenzae; parameters: MIC50 / MIC90: unit not given beside the values
[26] = tested on: Ureaplasma urealyticum
[27] = tested on: cells expressing the human CCR6
[28] = tested on: mast cells
[29] = tested on: Staphylococcus aureus; settings: physiological salt concentrations
[30] = tested on: Mycoplasma pneumoniae
[31] = tested on: Mycoplasma hominis; parameters: MIC50 / MIC90: unit not given beside the values
[32] = Staphylococcus aureus (methicillin resistant)
[33] = Staphylococcus aureus (penicillin resistant)
[34] = Staphylococcus aureus (penicillin susceptible)
[35] = Neisseria gonorrhoeae (non β-lactamase producer)
[36] = Haemophilus influenzae (non β-lactamase producer)
[37] = Haemophilus influenzae (penicillin resistant)
[38] = Haemophilus influenzae (penicillin susceptible)
[39] = Haemophilus influenzae (β-lactamase producer)

CC[C@H]1OC(=O)[C@H](C)[C@@H](O[C@H]2C[C@@](C)(OC)[C@@H](O)[C@H](C)O2)[C@H](C)[C@@H](O[C@@H]2O[C@H](C)C[C@H](N(C)C)[C@H]2O)[C@](C)(O)C[C@@H](C)C(=O)[C@H](C)[C@@H](O)[C@]1(C)O [ERYTHROMYCIN, erythromycin]
MIC50 [1]: 0.03
MIC90 [1]: 0.03
Range [1]: 0.03-0.25 and 0.015-0.06
MIC50 [2]: 2
MIC90 [2]: 32
Range [2]: 0.06-32
MIC50 [3]: 64
MIC90 [3]: 64
MIC50 [4]: 64
MIC90 [4]: 64
MIC50 [5]: 0.5
Range [5]: 0.25-16
MIC50 [6]: 8
MIC90 [6]: 32
Range [6]: 4-32
Range [7]: 0.06-1 and 0.03-0.25 and 0.06-8
MIC50 [8]: 0.06 and 0.03
MIC90 [8]: 0.03 and 0.06
Range [8]: 0.03-0.25 and 0.015-0.06 and 0.015-0.25
MIC50 [9]: 0.004
MIC90 [9]: 0.06
MIC50 [10]: 1
MIC90 [10]: 8
Range [10]: 0.5-8
MIC50 [11]: 1
MIC90 [11]: 64
Range [11]: 0.06-64
MIC90 [12]: 4 and 2
Range [12]: 0.5-8
MIC50 [13]: 2
MIC90 [13]: 4
Range [13]: 0.5-8
MIC50 [14]: 2
MIC90 [14]: 64
MIC50 [15]: 0.5
MIC50 [16]: 0.03
MIC50 ([17]; Staphylococcus aureus): 0.5
MIC50 [17, 32]: 64 and 32
MIC90 [17, 32]: 64 and 32
MIC50 ([17]; Staphylococcus aureus (methicillin susceptible)): 0.5
MIC90 [17, 33]: 32
Range [17, 33]: 0.25-32
MIC50 [17, 34]: 0.5
MIC90 [17, 34]: 0.5
Range [17, 34]: 0.06-32
MIC50 [18]: 0.06 and 0.03
MIC50 [19]: 0.03
MIC90 [19]: 0.06
MIC90 [20]: 2
Range [20]: 0.03-2
MIC50 [21]: 8
MIC90 [21]: 8
Range [21]: 0.25-8
MIC50 [22]: 64
MIC90 [22]: 64
MIC90 ([23]; Neisseria gonorrhoeae): 1
Range ([23]; Neisseria gonorrhoeae): 0.0075-8
MIC90 [23, 35]: 2 and 1
Range [23, 35]: 0.015-4 and 0.03-2
MIC90 ([23]; Neisseria gonorrhoeae (β-lactamase producer)): 2 and 4
MIC50 [24]: 1
MIC90 [24]: 8
Range [24]: 0.25-16
MIC50 ([25]; Haemophilus influenzae): 2 and 1
MIC90 ([25]; Haemophilus influenzae): 2 and 4
Range ([25]; Haemophilus influenzae): 0.5-8 and 0.25-16
MIC50 [25, 36]: 2 and 4
MIC90 [25, 36]: 4 and 8
Range [25, 36]: 0.06-8
MIC50 [25, 37]: 8
MIC90 [25, 37]: 16
Range [25, 37]: 8-16
MIC50 [25, 38]: 8
MIC90 [25, 38]: 16
Range [25, 38]: 0.25-16
MIC50 [25, 39]: 4 and 2
MIC90 [25, 39]: 8 and 4
MIC90 [26]: 32

CCL20: the only reported chemokine ligand for CCR6
chemokine activity relative to HBD-1 and HBD-2 ([27]; greater than that of HBD-1 and HBD-2): approximately 10 fold

HBD-2: HBD-2 protein encoded by the DEFB2 gene (GIGDPVTCLKSGAICHPVFCPRRYKQIGTCGLPGTKCCKKP; UniProt O15263 24-64, looked up)
chemotaxis of cells expressing the human CCR6 [27]: selectively chemotactic
histamine release from mast cells [28]: stimulates mast cells to release histamine

DEFB3: protein encoded by the known human β-defensin gene DEFB3 (GIINTLQKYYCRVRGGRCAVLSCLPKEEQIGKCSTRGRKCCRRKK; not fully specified (bridges); cysteine pairing not given here; UniProt P81534 23-67, looked up)
salt sensitivity of bactericidal activity against Staphylococcus aureus [29]: not salt-sensitive

CCC[C@@H]1C[C@@H](C(=O)N[C@@H]([C@H]2O[C@H](SC)[C@H](O)[C@@H](O)[C@H]2O)[C@@H](C)O)N(C)C1 [LINCOMYCIN, lincomycin]
MIC50 [30]: 8
MIC90 [30]: 32
Range [30]: 2-32
MIC50 ([17]; Staphylococcus aureus): 1
MIC90 ([17]; Staphylococcus aureus): 1
Range ([17]; Staphylococcus aureus): 0.5-512
MIC50 [31]: 2
MIC90 [31]: 4
Range [31]: 0.5-16
MIC50 [26]: 128
MIC90 [26]: 128
Range [26]: 64-128

HBD-1: known human β-defensin peptide, product of DEFB1 (DHYNCVSSGGQCLYSACPIFTKIQGTCYRGKAKCCK; not fully specified (bridges); cysteine pairing not given here; UniProt P60022 33-68, looked up)
chemotaxis of cells expressing the human CCR6 [27]: selectively chemotactic
